In patent US20060063784A1, “Method of using substituted pyrazolo [1,5-a] pyrimidines” (priority 2004, published 2006):
Where two headings read alike, the source gives them in different places.

Columns and labels:
[1] = system: 80S14 (p21-deficient) cells; assay: Cytotoxicity assay using isogenic cell lines: IC50 in 80S14 (p21-deficient) cells, SRB; format: cell-based, human
How it was run: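 IC50 is the concentration halving proliferation relative to untreated controls, read from SRB absorbance (560 nm) after TCA fixation. Test agent dilutions (5 pM–50 μM or 170 pg/ml–10 μg/ml) were left on p21-deficient 80S14 cells (12,000/well, pre-incubated overnight) for 5 days at 37 °C.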

LoVo Colon cell line = assay: Cytotoxicity assay using LoVo colon cell line, SRB; format: cell-based; conditions: read-out: Inhibition of LoVo
How it was run: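 Growth inhibition read by sulforhodamine B after 4-day compound exposure at 37 °C. Colon LoVo cells plated at 4000 per well in RPMI/10% FBS a day earlier; doses ranged 5 pM-20 μM or 170 pg/ml-10 μg/ml. IC50 is the concentration halving proliferation versus untreated wells.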

[2] = Homo sapiens, 120 h, 80S14 (p21-deficient) cells, 5 days, SRB, class symbols, read-out: IC50 for 80S14
[3] = Homo sapiens, 96 h, Cellular activity in LoVo cell, 4 days incubation, SRB
[4] = Cellular activity in LoVo cell, 4 days incubation, SRB
[5] = Homo sapiens, 80S14, 120 h, read-out: IC50 for 80S14 (uM)
[6] = Homo sapiens, 120 h, 80S14 p21-deficient cells, 5 days incubation, SRB, read-out: IC50 for 80SI4
[7] = Homo sapiens, 96 h, LoVo colon cells, 4 days incubation, SRB

Compound | IC50 [1, 2] | IC50 (LoVo Colon cell line; [3]) | other results
O=C(Nc1cccc(-c2ccnc3c(C(=O)c4cccs4)cnn23)c1)c1cccnc1 [Example 290, N-{3-[3-(2-Thienylcarbonyl)pyrazolo[1,5-a]pyrimidin-7-yl]phenyl}nicotinamide] | < 1 µM | 100 to 1000 nM | 
O=C(Nc1cccc(-c2ccnc3c(C(=O)c4cccs4)cnn23)c1)NC1CCCCC1 [Example 353, N-Cyclohexyl-N′-{3-[3-(thien-2-ylcarbonyl)pyrazolo[1,5-a]pyrimidin-7-yl]phenyl}urea] | < 1 µM |  | IC50 (LoVo Colon cell line; [4]): < 100 nM
CC(C)CC(=O)Nc1cccc(-c2ccnc3c(-c4cccc(CN5CCOCC5)c4)cnn23)c1 [Example 488, 3-Methyl-N-(3-{3-[3-(morpholin-4-ylmethyl)phenyl]pyrazolo[1,5-a]pyrimidin-7-yl}phenyl)butanamide] | 10 to 50 µM | 1000 to 20000 nM | 
CCCCn1nnc(-c2cccc(-c3ccnc4c(C(=O)c5cccs5)cnn34)c2)n1 [Example 506, {7-[3-(2-Butyl-2H-tetraazol-5-yl)phenyl]pyrazolo[1,5-a]pyrimidin-3-yl) (thien-2-yl)methanone] | < 1 µM | < 100 nM | 
CC(C)CC(=O)Nc1cccc(-c2ccnc3c(C(=O)c4ccsc4)cnn23)c1 [Example 297, 3-Methyl-N-{3-[3-(3-thienylcarbonyl)pyrazolo[1,5-a]pyrimidin-7-yl]phenyl}butanamide] |  |  | IC50 [1, 5]: < 1 µM; IC50 (LoVo Colon cell line; Homo sapiens, LoVo, 96 h): < 100 nM
Cc1cnc2c(C(=O)c3cccs3)cnn2c1-c1cccc(NC(=O)OC(C)C)c1 [Example 211, isopropyl 3-[6-methyl-3-(thien-2-ylcarbonyl)pyrazolo[1,5-a]pyrimidin-7-yl]phenylcarbamate] |  |  | IC50 [1, 6]: 10 to 50 µM; IC50 (LoVo Colon cell line; [7]): 1000 to 2000 nM
Cc1cc(-c2cccc(NC(=O)Cc3cccs3)c2)n2ncc(C(=O)c3cccs3)c2n1 [Example 205, N-{3-[5-methyl-3-(thien-2-ylcarbonyl)pyrazolo[1,5-a]pyrimidin-7-yl]phenyl}-2-thien-2-ylacetamide] |  |  | IC50 [1, 6]: 1 to 10 µM; IC50 (LoVo Colon cell line; [7]): 100 to 1000 nM
O=C(c1cccs1)c1cnn2c(-c3cccc(NCc4cccc(Cl)c4)c3)ccnc12 [Example 365, (7-{3-[(3-Chlorobenzyl)amino]phenyl}pyrazolo[1,5-a]pyrimidin-3-yl)(thien-2-yl)methanone] | 10 to 50 µM | 1000 to 20000 nM | 
CN(C)c1ccc(-c2cc(-c3ccnc4c(C(=O)c5cccs5)cnn34)ccc2F)cc1 [Example 454, {7-[4′-(Dimethylamino)-6-fluoro-1,1′-biphenyl-3-yl]pyrazolo[1,5-a]pyrimidin-3-yl}(thien-2-yl)methanone] | 1 to 10 µM | 100 to 1000 nM | 
CC(C)=CCNc1cccc(-c2ccnc3c(C(=O)c4cccs4)cnn23)c1 [Example 371, (7-{3-[(3-Methylbut-2-enyl)amino]phenyl}pyrazolo[1,5-a]pyrimidin-3-yl)(thien-2-yl)methanone] | < 1 µM | < 100 nM | 
O=C(c1cccs1)c1cnn2c(-c3csc([N+](=O)[O-])c3)ccnc12 [Example 328, [7-(5-Nitro-3-thienyl)pyrazolo[1,5-a]pyrimidin-3-yl](2-thienyl)methanone] | 1 to 10 µM | 100 to 1000 nM | 
CC(C)OC(=O)Nc1cc(-c2ccnc3c(C(=O)c4cccs4)cnn23)ccc1F [Example 347, Isopropyl 2-fluoro-5-[3-(thien-2-ylcarbonyl)pyrazolo[1,5-a]pyrimidin-7-yl]phenylcarbamate] |  |  | IC50 [1, 5]: < 1 µM; IC50 (LoVo Colon cell line; Homo sapiens, LoVo, 96 h): < 100 nM
O=C(Nc1cccc(-c2ccnc3c(C(=O)c4cccs4)cnn23)c1)c1cccs1 [Example 51, N-{3-[3-(thien-2-ylcarbonyl)pyrazolo[1,5-a]pyrimidin-7-yl]phenyl}thiophene-2-carboxamide] |  |  | IC50 [1, 6]: < 1 µM; IC50 (LoVo Colon cell line; [7]): < 100 nM
O=C(c1cccs1)c1cnn2c(-c3cccc(-c4ccn(Cc5ccccn5)n4)c3)ccnc12 [Example 517, (7-{3-[1-(Pyridin-2-ylmethyl)-1H-pyrazol-3-yl]phenyl}pyrazolo[1,5-a]pyrimidin-3-yl)(thien-2-yl)methanone] | < 1 µM | 100 to 1000 nM | 
O=C(c1cccs1)c1cnn2c(-c3cccc(-c4nnn(CCN5CCCC5)n4)c3)ccnc12 [Example 511, (7-{3-[2-(2-Pyrrolidin-1-ylethyl)-2H-tetraazol-5-yl]phenyl}pyrazolo[1,5-a]pyrimidin-3-yl)(thien-2-yl)methanone] | < 1 µM | 100 to 1000 nM | 
COCCN(CCOC)C(=O)Nc1cccc(-c2ccnc3c(C(=O)c4cccs4)cnn23)c1 [Example 168, N,N-bis(2-methoxyethyl)-N′-{3-[3-(thien-2-ylcarbonyl)pyrazolo[1,5-a]pyrimidin-7-yl]phenyl}urea] |  |  | IC50 [1, 6]: 10 to 50 µM; IC50 (LoVo Colon cell line; [7]): 1000 to 2000 nM

Compound | IC50 [1, 2] | IC50 (LoVo Colon cell line; [3]) | other results
COc1ccc(-c2cnn3c(-c4cccc(NC(=O)CC(C)C)c4)ccnc23)cc1 [Example 470, N-{3-[3-(4-Methoxyphenyl)pyrazolo[1,5-a]pyrimidin-7-yl]phenyl}-3-methylbutanamide] | 10 to 50 µM | 1000 to 20000 nM | 
C=C(CC)CNc1cccc(-c2ccnc3c(C(=O)c4cccs4)cnn23)c1 [Example 435, (7-{3-[(2-Ethylprop-2-enyl)amino]phenyl}pyrazolo[1,5-a]pyrimidin-3-yl)(thien-2-yl)methanone] | 1 to 10 µM | 100 to 1000 nM | 
CC(C)NC(=O)Nc1cc(-c2ccnc3c(C(=O)c4cccs4)cnn23)ccc1F [Example 382, N-{2-Fluoro-5-[3-(thien-2-ylcarbonyl)pyrazolo[1,5-a]pyrimidin-7-yl]phenyl}-N′-isopropylurea] | < 1 µM | < 100 nM | 
O=C(NCC1CCCCC1)Nc1cccc(-c2ccnc3c(C(=O)c4cccs4)cnn23)c1 [Example 160, N-(cyclohexylmethyl)-N′-{3-[3-(thien-2-ylcarbonyl)pyrazolo[1,5-a]pyrimidin-7-yl]phenyl}urea] |  |  | IC50 [1, 6]: 1 to 10 µM; IC50 (LoVo Colon cell line; [7]): 100 to 1000 nM
CC(C)CC(=O)Nc1cc(-c2ccnc3c(C(=O)c4cccs4)cnn23)ccc1Cl [Example 313, N-{2-Chloro-5-[3-(2-thienylcarbonyl)pyrazolo[1,5-a]pyrimidin-7-yl]phenyl}-3-Methylbutanamide] |  |  | IC50 [1, 5]: < 1 µM; IC50 (LoVo Colon cell line; Homo sapiens, LoVo, 96 h): < 100 nM
CCCOC(=O)Nc1cccc(-c2cc(C)nc3c(C(=O)c4cccs4)cnn23)c1 [Example 194, propyl 3-[5-methyl-3-(thien-2-ylcarbonyl)pyrazolo[1,5-a]pyrimidin-7-yl]phenylcarbamate] |  |  | IC50 [1, 6]: < 1 µM; IC50 (LoVo Colon cell line; [7]): < 100 nM
COc1ccc(/C=C/CNc2cccc(-c3ccnc4c(C(=O)c5cccs5)cnn34)c2)cc1 [Example 396, [7-(3-{[(2E)-3-(4-Methoxyphenyl)prop-2-enyl]amino}phenyl)pyrazolo[1,5-a]pyrimidin-3-yl](thien-2-yl)methanone] | 10 to 50 µM | 1000 to 20000 nM | 
Cc1cc(C)cc(-c2cnn3c(-c4cccc(NC(=O)CC(C)C)c4)ccnc23)c1 [Example 476, N-{3-[3-(3,5-Dimethylphenyl)pyrazolo[1,5-a]pyrimidin-7-yl]phenyl}-3-methylbutanamide] | < 1 µM | < 100 nM | 
CCCCOC(=O)Nc1cccc(-c2ccnc3c(C(=O)c4cccs4)cnn23)c1 [Example 13, butyl 3-[3-(thien-2-ylcarbonyl)pyrazolo[1,5-a]pyrimidin-7-yl]phenylcarbamate] |  |  | IC50 ([1]; Homo sapiens, 80S14, 120 h, read-out: IC50 for 80SI4 (uM)): < 1 µM; IC50 (LoVo Colon cell line; Homo sapiens, LoVo, 96 h): < 100 nM
{7-[3-(1-Ethyl-1H-pyrazol-3-yl)phenyl]pyrazolo[1,5-a]pyrimidin-3-yl (thien-2-yl)methanone [Example 518] |  |  | IC50 ([1]; 80S14 (p21-deficient) cells, 5 days, SRB, class symbols, read-out: IC50 for 80S14): < 1 µM; IC50 (LoVo Colon cell line; [4]): < 100 nM
O=C(c1cccs1)c1cnn2c(-c3cccc(NC(=O)N4CCCCC4)c3)ccnc12 [Example 155, N-{3-[3-(thien-2-ylcarbonyl)pyrazolo[1,5-a]pyrimidin-7-yl]phenyl}piperidine-1-carboxamide] |  |  | IC50 [1, 6]: < 1 µM; IC50 (LoVo Colon cell line; [7]): < 100 nM
Cc1cc(-c2cccc(NC(=O)CC(C)C)c2)n2ncc(C(=O)c3cccs3)c2n1 [Example 201, 3-methyl-N-{3-[5-methyl-3-(thien-2-ylcarbonyl)pyrazolo[1,5-a]pyrimidin-7-yl]phenyl}butanamide] |  |  | IC50 [1, 6]: < 1 µM; IC50 (LoVo Colon cell line; [7]): < 100 nM
O=C(c1cccs1)c1cnn2c(-c3cccc(-c4ccn(CC5CCC5)n4)c3)ccnc12 [Example 515, (7-{3-[1-(Cyclobutylmethyl)-1H-pyrazol-3-yl]phenyl}pyrazolo[1,5-a]pyrimidin-3-yl)(thien-2-yl)methanone] | < 1 µM | < 100 nM | 
CCN(CC)Cc1ccc(-c2cccc(-c3ccnc4c(C(=O)c5cccs5)cnn34)c2)cc1 [Example 462, (7-{4′-[(Diethylamino)methyl]-1,1′-biphenyl-3-yl}pyrazolo[1,5-a]pyrimidin-3-yl)(thien-2-yl)methanone] | 1 to 10 µM | 100 to 1000 nM | 
O=C(Nc1cccc(-c2ccnc3c(C(=O)c4cccs4)cnn23)c1)OCc1ccccn1 [Example 429, Pyridin-2-ylmethyl 3-[3-(thien-2-ylcarbonyl)pyrazolo[1,5-a]pyrimidin-7-yl]phenylcarbamate] | 1 to 10 µM | 100 to 1000 nM | 
CC(C)CC(=O)Nc1cccc(-c2ccnc3c(-c4ccc(Oc5ccccc5)cc4)cnn23)c1 [Example 480, 3-Methyl-N-{3-[3-(4-phenoxyphenyl)pyrazolo[1,5-a]pyrimidin-7-yl]phenyl}butanamide] | 10 to 50 µM | 1000 to 20000 nM | 
